Patent US7572777B2, “Florfenicol prodrug having improved water solubility” (Schering-Plough Animal Health Corp., priority 2003, dated 2009)

What was measured:
[1] = Conversion of prodrug to florfenicol in rat serum; conditions: 37° C., after 4 hours (FIG. 1)
[2] = Conversion of prodrug to florfenicol in bovine serum; conditions: 37° C., after 4 hours (FIG. 1)
physchem = format: physicochemical
Protocol: Successive aliquots of solid phosphate ester prodrug (sodium salt) were added to water with agitation. Addition was continued until mixing became difficult due to high viscosity, at which point all of the prodrug remained in solution.

[3] = Stability of the phosphate prodrug in aqueous solutions; format: physicochemical; conditions: for % Compound B (cyclic phosphate formed) / % Compound C (free florfenicol formed) / % Compound A: 40° C., 30 days under nitrogen; for % Compound A: initial purity 98.3%
Text: Although relatively stable in aqueous solutions, over prolonged periods of time the phosphate ester of florfenicol (Formula I) undergoes slow degradation resulting in the release of free florfenicol as well as the formation of cyclic phosphate diester. The formation of the cyclic diester occurs through the phosphate anion displacement of fluorine and requires participation of the phosphate di-anion, which is much more nucleophilic than the corresponding mono-anion. Therefore, the rate of formation of the cyclic diester is largely dependent on the pH of the solution or more generally, on the degree of the phosphate ionization. […]. However, even such small changes of pH result in noticeable differences of the amount of the cyclic phosphate diester formed.

[4] = Conversion of florfenicol phosphate to florfenicol in cattle (plasma florfenicol after iv dosing); format: in vivo; conditions: calves, approximately 10 mg/kg, HPLC-MS/MS (FIG. 2)
Text: […]. Each symbol denotes the data from a different calf.

[5] = Conversion of florfenicol phosphate to florfenicol in dogs (plasma florfenicol after iv dosing); format: in vivo; conditions: approximately 11 mg/kg, HPLC-MS/MS (FIG. 3)
Protocol: . The plot depicts florfenicol concentrations in the plasma of three dogs following intravenous administration of the florfenicol phosphate ester prodrug at a dose of approximately 11.1 mg/kg of body weight, which equates to a florfenicol equivalent dose of 8.3 mg/kg. Each symbol denotes the data from a different dog.

[6] = Conversion of florfenicol phosphate to florfenicol in swine (plasma florfenicol after iv dosing); format: in vivo; conditions: pigs, approximately 6.7 mg/kg (FIG. 4)
Protocol: FIG. 4 is a graphic presentation of florfenicol concentrations in the plasma of pigs following intravenous administration of florfenicol phosphate ester. The plot depicts florfenicol concentrations detected in the plasma of three pigs following intravenous administration of the florfenicol phosphate ester prodrug at a dose of approximately 6.7 mg/kg of body weight, which equates to a florfenicol equivalent dose of 5 mg/kg. Each symbol denotes the data from a different pig.
[…]. Plasma samples were collected after drug administration and analyzed for concentrations of florfenicol. […].

[7] = pH 4.48 adjusted with ethanolamine, 300 mg/mL active florfenicol
[8] = pH 4.54, aqueous solution 300 mg/mL active florfenicol
[9] = pH 4.95, aqueous solution 300 mg/mL active florfenicol
[10] = pH 5.03 adjusted with ethanolamine, 300 mg/mL active florfenicol
[11] = pH 5.51 adjusted with ethanolamine, 300 mg/mL active florfenicol
[12] = pH 5.53, aqueous solution 300 mg/mL active florfenicol
[13] = listed as Florfenicol phosphate

## CS(=O)(=O)c1ccc([C@@H](OC(=O)CCCC(=O)O)[C@@H](CF)NC(=O)C(Cl)Cl)cc1 [glutarate ester of florfenicol]
[1]
  conversion (hydrolysis) to florfenicol: about 3%
[2]
  conversion (hydrolysis) to florfenicol: approximately 6%

## CS(=O)(=O)c1ccc([C@@H](OP(=O)(O)O)[C@@H](CF)NC(=O)C(Cl)Cl)cc1 [florfenicol phosphate ester]
physchem; water, thermodynamic from solid
  solubility: > 600 mg/mL
[3]; below pH 4 or at neutral or higher pH ranges
  stability in aqueous solution versus pH: less stable
[3]; close to one equivalent of sodium hydroxide or ethanolamine added to concentrated aqueous solution, approximately pH 4.5 to pH 5.5
  stability of aqueous solutions of the prodrug: Satisfactory stability
[3]; increased ionic strength
  effect of ionic strength on aqueous stability: reduces the aqueous stability
[3]; [7]
  % Compound B (cyclic phosphate formed): 0.18%
  % Compound C (free florfenicol formed): 0.92%
  % Compound A: 93.43%
[3]; [8]
  % Compound B (cyclic phosphate formed): 0.17%
  % Compound C (free florfenicol formed): 1.02%
  % Compound A: 94.40%
[3]; [9]
  % Compound B (cyclic phosphate formed): 0.37%
  % Compound C (free florfenicol formed): 1.01%
  % Compound A: 93.38%
[3]; [10]
  % Compound B (cyclic phosphate formed): 0.58%
  % Compound C (free florfenicol formed): 0.86%
  % Compound A: 95.83%
[3]; [11]
  % Compound B (cyclic phosphate formed): 1.25%
  % Compound C (free florfenicol formed): 0.70%
  % Compound A: 93.83%
[3]; [12]
  % Compound B (cyclic phosphate formed): 1.41%
  % Compound C (free florfenicol formed): 0.93%
  % Compound A: 93.06%
[4]
  plasma florfenicol concentrations following treatment: substantial concentrations of florfenicol were detected
[4]; [13]
  plasma florfenicol concentrations following treatment: increased rapidly
[5]
  plasma florfenicol concentrations following treatment: substantial concentrations of florfenicol were detected
[5]; [13]
  plasma florfenicol concentrations following treatment: increased rapidly
[6]
  plasma florfenicol concentrations following treatment: substantial concentrations of florfenicol were detected
[6]; [13]
  plasma florfenicol concentrations following treatment: increased rapidly

## CS(=O)(=O)c1ccc([C@@H](OP(=O)([O-])[O-])[C@@H](CF)NC(=O)C(Cl)Cl)cc1.[Na+].[Na+] [sodium salt of florfenicol phosphate, [1R, 2S-1-(4-Methanesulfonylphenyl)-2-(2,2-dichloroacetylamino)-3-fluoropropyl]phosphate disodium salt]
physchem
  aqueous solubility (original concentration by HPLC): greater than 700 mg/mL
[3]; heating a solution of the bis sodium salt
  conversion of the prodrug into cyclic diester: almost quantitative conversion
